Test results: paper PMC9851200, “Multiparameter phenotypic screening for endogenous TFEB and TFE3 translocation identifies novel chemical series modulating lysosome function” (Autophagy, 2022)
Read-outs that look alike come from different tables or passages of the source.

Experiments:
Experiment in all cases: biochemical
Type in all cases: binding
[1] = target: T1, cellular kinases of SH-SY5Y cells (Homo sapiens, UniProt O60307); conditions: 2µM; SH-SY5Y cells; Labeling Site Lys2; DLKPDNLLITSLGHIK; read-out: KiNativ in-cell binding, % Inhibition, MAST3
T1 construct: endogenous in cells; host or cells: SH-SY5Y
Text: (§1) As KINOMEscan is an in vitro assay, and as different cell types have variable kinase expression profiles we sought to determine the kinase binding profile in our SH-SY5Y TFEB-relocalization cell model. […] Bound kinases were pulled down and analyzed by mass spectrometry to determine the in situ kinase binding profile for each compound.

[2] = target: T2, cellular kinases of SH-SY5Y cells (Homo sapiens, UniProt O75385); conditions: 2µM; SH-SY5Y cells; Labeling Site Lys2; DLKPQNILLSNPAGR; read-out: KiNativ in-cell binding, % Inhibition, ULK1
T2 construct: endogenous in cells; host or cells: SH-SY5Y
Text: as §1

[3] = target: cellular kinases of SH-SY5Y cells (Homo sapiens, UniProt P09769); conditions: 2µM; SH-SY5Y cells; Labeling Site Activation Loop; LIKDDEYNPCQGSKFPIK; read-out: KiNativ in-cell binding, % Inhibition, FGR
Chain of cellular kinases of SH-SY5Y cells (Homo sapiens, UniProt P09769) (P09769 whole entry): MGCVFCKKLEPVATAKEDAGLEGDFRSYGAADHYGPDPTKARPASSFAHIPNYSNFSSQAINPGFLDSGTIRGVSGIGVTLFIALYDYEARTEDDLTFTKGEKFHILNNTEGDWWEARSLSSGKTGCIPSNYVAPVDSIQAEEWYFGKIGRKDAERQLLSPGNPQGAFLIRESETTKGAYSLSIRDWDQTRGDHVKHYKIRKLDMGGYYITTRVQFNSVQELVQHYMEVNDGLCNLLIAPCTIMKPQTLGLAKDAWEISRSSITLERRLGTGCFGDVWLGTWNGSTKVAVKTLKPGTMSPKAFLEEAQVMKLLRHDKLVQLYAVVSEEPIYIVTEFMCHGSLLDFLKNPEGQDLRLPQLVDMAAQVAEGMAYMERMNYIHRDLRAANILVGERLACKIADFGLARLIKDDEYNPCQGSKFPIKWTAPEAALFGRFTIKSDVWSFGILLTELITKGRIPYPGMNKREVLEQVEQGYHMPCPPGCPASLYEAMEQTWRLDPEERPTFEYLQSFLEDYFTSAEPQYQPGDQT
Text: as §1

[4] = target: T3, cellular kinases of SH-SY5Y cells (Homo sapiens, UniProt P43403); conditions: 2µM; SH-SY5Y cells; Labeling Site Activation Loop; SAGKWPLK; read-out: KiNativ in-cell binding, % Inhibition, ZAP70
T3 construct: endogenous in cells; host or cells: SH-SY5Y
Text: as §1

[5] = target: T4, cellular kinases of SH-SY5Y cells (Homo sapiens, UniProt Q07912); conditions: 2µM, SH-SY5Y cells, read-out: KiNativ in-cell binding, % Inhibition, TNK2/ACK
T4 construct: endogenous in cells; host or cells: SH-SY5Y
Text: as §1

[6] = target: cellular kinases of SH-SY5Y cells (Homo sapiens, UniProt Q13043); conditions: 2µM; SH-SY5Y cells; Labeling Site Lys1; ETGQIVAIKQVPVESDLQEIIK; read-out: KiNativ in-cell binding, % Inhibition, STK4/MST1
Text: as §1

[7] = target: cellular kinases of SH-SY5Y cells (Homo sapiens, UniProt Q13555); conditions: 2µM; SH-SY5Y cells; Labeling Site Lys1; TSTQEYAAKIINTK; read-out: KiNativ in-cell binding, % Inhibition, CaMK2g
Text: as §1

[8] = target: T5, cellular kinases of SH-SY5Y cells (Homo sapiens, UniProt Q15208); conditions: 2µM, SH-SY5Y cells, read-out: KiNativ in-cell binding, % Inhibition, STK38/NDR1
T5 construct: endogenous in cells; host or cells: SH-SY5Y
T5 sequence (Q15208 whole entry): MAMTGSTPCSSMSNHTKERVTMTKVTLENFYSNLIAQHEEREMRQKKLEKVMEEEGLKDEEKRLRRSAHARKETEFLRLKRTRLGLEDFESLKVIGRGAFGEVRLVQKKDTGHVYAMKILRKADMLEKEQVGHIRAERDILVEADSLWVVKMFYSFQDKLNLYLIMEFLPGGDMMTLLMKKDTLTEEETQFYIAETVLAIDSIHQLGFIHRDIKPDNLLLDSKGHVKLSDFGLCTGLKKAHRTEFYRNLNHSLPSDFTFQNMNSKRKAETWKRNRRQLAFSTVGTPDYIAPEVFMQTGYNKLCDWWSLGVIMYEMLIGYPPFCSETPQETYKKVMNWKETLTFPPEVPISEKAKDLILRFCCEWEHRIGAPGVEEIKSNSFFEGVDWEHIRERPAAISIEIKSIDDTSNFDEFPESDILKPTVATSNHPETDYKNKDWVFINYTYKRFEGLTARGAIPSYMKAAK
Text: as §1

[9] = target: T6, cellular kinases of SH-SY5Y cells (Homo sapiens, UniProt Q16513); conditions: 2µM; SH-SY5Y cells; labeling site Lys2; peptide DLKLDNLLLDTEGFVK
T6 construct: endogenous in cells; host or cells: SH-SY5Y
Text: as §1

[10] = target: T7, cellular kinases of SH-SY5Y cells (Homo sapiens, UniProt Q58A45); conditions: 2µM, SH-SY5Y cells, labeling site ATP
T7 construct: endogenous in cells; host or cells: SH-SY5Y
Text: as §1

[11] = target: T8, cellular kinases of SH-SY5Y cells (Homo sapiens, UniProt Q8TD19); conditions: 2µM, SH-SY5Y cells, read-out: KiNativ in-cell binding, % Inhibition, NEK9
T8 construct: endogenous in cells; host or cells: SH-SY5Y
T8 sequence (Q8TD19 1-979): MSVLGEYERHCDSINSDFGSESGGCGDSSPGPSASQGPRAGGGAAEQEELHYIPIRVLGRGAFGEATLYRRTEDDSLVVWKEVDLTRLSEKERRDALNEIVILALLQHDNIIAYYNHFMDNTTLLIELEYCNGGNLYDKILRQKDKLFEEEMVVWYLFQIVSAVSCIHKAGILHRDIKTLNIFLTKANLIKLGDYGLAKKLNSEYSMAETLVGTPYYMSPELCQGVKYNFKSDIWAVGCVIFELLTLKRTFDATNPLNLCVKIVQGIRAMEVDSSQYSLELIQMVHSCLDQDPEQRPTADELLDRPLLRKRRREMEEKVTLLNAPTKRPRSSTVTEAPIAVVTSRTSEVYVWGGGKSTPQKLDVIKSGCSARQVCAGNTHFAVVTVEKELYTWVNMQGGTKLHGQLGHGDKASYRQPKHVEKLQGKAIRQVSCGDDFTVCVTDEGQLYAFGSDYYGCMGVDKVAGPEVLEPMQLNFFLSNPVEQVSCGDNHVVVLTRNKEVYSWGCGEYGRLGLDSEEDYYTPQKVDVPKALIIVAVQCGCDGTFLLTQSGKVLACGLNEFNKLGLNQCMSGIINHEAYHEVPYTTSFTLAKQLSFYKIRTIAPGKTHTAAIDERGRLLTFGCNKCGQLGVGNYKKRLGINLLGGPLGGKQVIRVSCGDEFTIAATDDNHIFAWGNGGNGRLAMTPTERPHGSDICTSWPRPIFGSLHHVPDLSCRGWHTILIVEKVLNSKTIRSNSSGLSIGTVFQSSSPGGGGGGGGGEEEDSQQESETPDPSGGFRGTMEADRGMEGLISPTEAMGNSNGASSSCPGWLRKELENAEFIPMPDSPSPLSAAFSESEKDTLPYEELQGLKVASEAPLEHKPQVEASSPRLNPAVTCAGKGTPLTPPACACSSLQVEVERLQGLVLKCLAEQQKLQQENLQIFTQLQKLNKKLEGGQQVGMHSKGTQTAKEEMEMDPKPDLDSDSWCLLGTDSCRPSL
Text: as §1

[12] = target: cellular kinases of SH-SY5Y cells (Homo sapiens, UniProt Q96Q15); conditions: 2µM, SH-SY5Y cells, Labeling Site ATP, read-out: KiNativ in-cell binding, % Inhibition, SMG1
Chain of cellular kinases of SH-SY5Y cells (Homo sapiens, UniProt Q96Q15) (Q96Q15 whole entry): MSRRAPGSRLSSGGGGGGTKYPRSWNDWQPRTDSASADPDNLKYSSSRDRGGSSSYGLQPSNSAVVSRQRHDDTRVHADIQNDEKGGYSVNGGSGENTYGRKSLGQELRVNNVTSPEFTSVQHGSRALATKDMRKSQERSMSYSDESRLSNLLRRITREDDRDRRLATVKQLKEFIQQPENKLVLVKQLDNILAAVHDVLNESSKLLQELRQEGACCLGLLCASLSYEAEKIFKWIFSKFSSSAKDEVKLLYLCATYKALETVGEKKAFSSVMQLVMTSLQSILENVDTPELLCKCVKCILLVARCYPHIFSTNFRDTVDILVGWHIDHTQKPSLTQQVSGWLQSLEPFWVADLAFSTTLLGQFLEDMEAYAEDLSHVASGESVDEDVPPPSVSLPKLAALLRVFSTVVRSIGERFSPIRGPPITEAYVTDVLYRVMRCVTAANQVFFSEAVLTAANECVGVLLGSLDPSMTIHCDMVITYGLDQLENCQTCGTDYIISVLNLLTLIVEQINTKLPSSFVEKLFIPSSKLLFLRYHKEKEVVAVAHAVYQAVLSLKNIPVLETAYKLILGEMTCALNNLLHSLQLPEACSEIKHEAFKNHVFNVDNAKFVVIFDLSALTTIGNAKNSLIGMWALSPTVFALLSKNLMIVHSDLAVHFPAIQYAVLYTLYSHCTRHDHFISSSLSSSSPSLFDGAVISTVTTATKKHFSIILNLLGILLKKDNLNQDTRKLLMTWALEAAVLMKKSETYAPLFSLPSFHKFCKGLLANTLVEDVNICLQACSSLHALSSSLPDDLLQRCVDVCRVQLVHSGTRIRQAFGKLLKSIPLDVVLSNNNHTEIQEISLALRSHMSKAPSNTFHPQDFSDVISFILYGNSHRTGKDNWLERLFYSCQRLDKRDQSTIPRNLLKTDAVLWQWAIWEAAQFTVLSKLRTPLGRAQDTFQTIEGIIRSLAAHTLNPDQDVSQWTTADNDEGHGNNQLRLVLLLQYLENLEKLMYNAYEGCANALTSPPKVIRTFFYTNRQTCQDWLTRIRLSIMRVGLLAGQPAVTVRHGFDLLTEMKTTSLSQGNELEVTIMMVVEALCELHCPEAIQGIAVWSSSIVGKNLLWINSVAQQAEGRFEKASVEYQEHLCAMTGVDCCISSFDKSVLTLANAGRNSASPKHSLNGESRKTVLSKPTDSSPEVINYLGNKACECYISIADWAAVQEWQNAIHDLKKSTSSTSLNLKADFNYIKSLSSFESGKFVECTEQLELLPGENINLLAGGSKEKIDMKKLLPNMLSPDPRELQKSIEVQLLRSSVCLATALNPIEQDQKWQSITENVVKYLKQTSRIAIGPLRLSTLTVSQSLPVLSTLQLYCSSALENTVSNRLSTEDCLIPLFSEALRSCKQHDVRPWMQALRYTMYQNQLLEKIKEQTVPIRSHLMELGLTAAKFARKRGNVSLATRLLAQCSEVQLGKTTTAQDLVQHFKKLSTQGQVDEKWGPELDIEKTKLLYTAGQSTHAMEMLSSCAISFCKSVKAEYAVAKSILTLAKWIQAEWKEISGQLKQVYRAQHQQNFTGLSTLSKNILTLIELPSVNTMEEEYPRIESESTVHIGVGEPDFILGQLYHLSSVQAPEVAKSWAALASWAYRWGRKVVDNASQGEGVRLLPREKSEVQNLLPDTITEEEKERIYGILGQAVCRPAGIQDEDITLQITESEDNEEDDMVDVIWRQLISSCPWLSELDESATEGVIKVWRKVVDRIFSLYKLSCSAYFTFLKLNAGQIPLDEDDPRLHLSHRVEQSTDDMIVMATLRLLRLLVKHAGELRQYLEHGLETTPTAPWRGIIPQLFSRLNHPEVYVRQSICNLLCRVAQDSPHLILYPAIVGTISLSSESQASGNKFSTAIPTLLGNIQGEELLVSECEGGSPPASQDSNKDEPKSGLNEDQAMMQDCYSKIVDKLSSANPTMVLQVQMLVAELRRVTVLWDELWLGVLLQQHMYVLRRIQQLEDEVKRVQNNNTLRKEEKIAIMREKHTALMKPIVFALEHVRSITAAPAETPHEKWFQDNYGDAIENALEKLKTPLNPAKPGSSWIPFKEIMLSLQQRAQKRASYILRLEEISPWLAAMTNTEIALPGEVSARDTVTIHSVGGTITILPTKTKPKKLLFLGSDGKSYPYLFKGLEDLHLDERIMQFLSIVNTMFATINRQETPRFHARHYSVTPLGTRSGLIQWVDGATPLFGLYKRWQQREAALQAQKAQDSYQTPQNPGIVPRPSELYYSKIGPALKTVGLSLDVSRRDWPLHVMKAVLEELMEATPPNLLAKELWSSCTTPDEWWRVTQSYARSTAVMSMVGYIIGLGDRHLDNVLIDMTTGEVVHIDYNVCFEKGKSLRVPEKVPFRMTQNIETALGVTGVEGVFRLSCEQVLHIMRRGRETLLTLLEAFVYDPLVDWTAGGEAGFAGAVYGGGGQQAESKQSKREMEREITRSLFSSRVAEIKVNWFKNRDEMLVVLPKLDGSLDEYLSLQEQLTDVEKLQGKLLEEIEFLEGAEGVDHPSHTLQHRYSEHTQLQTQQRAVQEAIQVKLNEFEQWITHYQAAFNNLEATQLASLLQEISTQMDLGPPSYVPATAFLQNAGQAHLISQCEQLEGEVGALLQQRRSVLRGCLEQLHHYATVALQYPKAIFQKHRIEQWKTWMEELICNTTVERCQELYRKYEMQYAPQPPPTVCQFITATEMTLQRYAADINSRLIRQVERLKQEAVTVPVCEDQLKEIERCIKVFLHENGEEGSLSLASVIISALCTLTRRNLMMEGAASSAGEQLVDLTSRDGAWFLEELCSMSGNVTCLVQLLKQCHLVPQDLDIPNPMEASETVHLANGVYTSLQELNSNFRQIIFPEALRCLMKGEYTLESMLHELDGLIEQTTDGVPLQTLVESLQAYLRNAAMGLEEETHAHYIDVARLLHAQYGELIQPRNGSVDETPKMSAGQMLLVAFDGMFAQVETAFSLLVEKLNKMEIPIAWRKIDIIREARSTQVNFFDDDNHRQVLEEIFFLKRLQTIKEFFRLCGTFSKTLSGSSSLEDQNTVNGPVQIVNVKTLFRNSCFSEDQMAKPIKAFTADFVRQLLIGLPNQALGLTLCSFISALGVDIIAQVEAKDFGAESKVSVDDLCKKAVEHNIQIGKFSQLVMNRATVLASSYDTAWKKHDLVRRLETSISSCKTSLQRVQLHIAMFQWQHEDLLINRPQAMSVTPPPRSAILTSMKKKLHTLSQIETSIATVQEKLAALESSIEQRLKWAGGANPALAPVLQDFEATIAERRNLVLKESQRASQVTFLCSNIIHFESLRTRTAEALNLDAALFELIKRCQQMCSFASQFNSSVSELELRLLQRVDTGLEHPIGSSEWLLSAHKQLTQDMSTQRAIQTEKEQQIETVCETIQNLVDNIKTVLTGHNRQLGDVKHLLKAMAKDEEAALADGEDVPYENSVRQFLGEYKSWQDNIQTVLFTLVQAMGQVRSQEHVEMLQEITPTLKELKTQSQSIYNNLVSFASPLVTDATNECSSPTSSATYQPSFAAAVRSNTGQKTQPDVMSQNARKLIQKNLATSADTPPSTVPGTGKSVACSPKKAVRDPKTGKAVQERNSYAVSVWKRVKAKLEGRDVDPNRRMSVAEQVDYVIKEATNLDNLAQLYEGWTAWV
Text: as §1

[13] = target: T9, cellular kinases of SH-SY5Y cells (Homo sapiens, UniProt Q9UHD2); conditions: 2µM; SH-SY5Y cells; labeling site Lys1; peptide TGDLFAIKVFNNISFLRPVDVQMR
T9 construct: endogenous in cells; host or cells: SH-SY5Y
Text: as §1

[14] = target: T10, cellular kinases of SH-SY5Y cells (Homo sapiens, UniProt Q9Y2H1); conditions: 2µM, SH-SY5Y cells
T10 construct: endogenous in cells; host or cells: SH-SY5Y
T10 sequence (Q9Y2H1 whole entry): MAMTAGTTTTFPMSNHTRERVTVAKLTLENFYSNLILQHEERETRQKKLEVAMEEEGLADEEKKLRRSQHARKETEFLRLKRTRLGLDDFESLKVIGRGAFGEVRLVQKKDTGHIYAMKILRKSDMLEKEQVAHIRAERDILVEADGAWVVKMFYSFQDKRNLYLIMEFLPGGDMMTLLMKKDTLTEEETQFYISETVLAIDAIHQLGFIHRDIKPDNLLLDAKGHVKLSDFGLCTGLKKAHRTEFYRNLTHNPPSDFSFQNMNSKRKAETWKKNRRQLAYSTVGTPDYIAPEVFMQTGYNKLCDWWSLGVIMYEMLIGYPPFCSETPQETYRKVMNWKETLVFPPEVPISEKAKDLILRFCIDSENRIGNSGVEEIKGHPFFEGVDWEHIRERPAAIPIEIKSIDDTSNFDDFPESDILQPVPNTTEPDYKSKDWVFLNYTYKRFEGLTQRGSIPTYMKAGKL
Text: as §1

Cc1cccc(-c2nc(Nc3ccc4ncsc4c3)c3ccccc3n2)n1 [NK140] gave an inhibition at 2 µM [1] of 1.2%, an inhibition at 2 µM [2] of -13.4% and an inhibition at 2 µM [3] of 20.4%. For the same compound, the inhibition at 2 µM [4] was -3%, the inhibition at 2 µM ([5]; Labeling Site Activation Loop, KVPFAWCAPESLK) was -3.4% and the inhibition at 2 µM ([5]; Labeling Site Lys1, TVSVAVKCLKPDVLSQPEAMDDFIR) was 12.9%. It also gave an inhibition at 2 µM [6] of 39%, an inhibition at 2 µM [7] of 30.4% and an inhibition at 2 µM ([8]; Labeling Site Lys1, DTGHVYAMKILR) of -36.9%. The inhibition at 2 µM ([8]; Labeling Site Lys2, DIKPDNLLLDSK) was 20.9%, the “KiNativ in-cell binding, PKN2” value [9] was -28.2 and the “KiNativ in-cell binding, PAN3” value ([10]; peptide IQKSSNFGYITSCYK) was -119.6. The “KiNativ in-cell binding, PAN3” value ([10]; peptide VMDPTKILITGK) was -99.0, the inhibition at 2 µM ([11]; Labeling Site Activation Loop, LGDYGLAKK) was 0.758% and the inhibition at 2 µM ([11]; Labeling Site Lys1, RTEDDSLVVWKEVDLTR) was -12.8%. The inhibition at 2 µM ([11]; Labeling Site Lys2, DIKTLNIFLTK) was -8%, the inhibition at 2 µM ([12]; DTVTIHSVGGTITILPTKTKPK) was 11.2% and the inhibition at 2 µM ([12]; SYPYLFKGLEDLHLDER) was 43.7%. For the same compound, the “KiNativ in-cell binding, TBK1” value [13] was -253.9, the inhibition at 2 µM ([14]; Labeling Site Lys1, DTGHIYAMKILR, read-out: KiNativ in-cell binding, % Inhibition, STK38L/NDR2) was -47.2% and the inhibition at 2 µM ([14]; Labeling Site Lys2, DIKPDNLLLDAK, read-out: KiNativ in-cell binding, % Inhibition, NDR2) was -39.9%.
